Like-named read-outs stand apart in the source and are kept apart here.
How the values were obtained:
[1] = test system: SARS-CoV-2; experiment: Inhibitory activity of cytopathic effect (CPE) in HEK293T/ACE2-TMPRSS2 cells; format: cell-based; conditions: Severe acute respiratory syndrome coronavirus 2, HEK-293T, 72 h
[2] = molecular target: SARS-CoV-2 3CL protease (Severe acute respiratory syndrome coronavirus 2, UniProt P0DTD1); experiment: Inhibitory activity test against SARS-CoV-2 3CL proteases; format: biochemical
[3] = HEK293T/ACE2-TMPRSS2 cells, cultured 3 days, CellTiter-Glo 2.0 luminescence, read-out: EC50 (50% SARS-CoV-2 infected cell death inhibitory concentration)
[4] = read-out: IC50 (50% SARS-CoV-2 3CL protease inhibitory concentration)
[5] = 50% SARS-CoV-2 infected cell death inhibitory concentration, HEK293T/ACE2-TMPRSS2 cells, CellTiter-Glo 2.0 after 3 days culture, read-out: EC50

Structure (SMILES)	EC50 [1, 3]	IC50 [2, 4]	EC50 [1, 5]	EC50 ([1]; read-out: EC50 (50% SARS-CoV-2 infected cell death inhibitory concentration))	IC50 ([2]; IC50 (50% SARS-CoV-2 3CL protease inhibitory concentration))
COc1nc(N2CCC(N(C)C)C2)cc2c1c(=O)n(-c1cnc3cc(F)ccn13)c(=O)n2-c1ccc(F)c(Cl)c1 (centres unmarked) [Compound I-1055]	< 100 nM	< 100 nM	–	–	–
Cn1cnc(Cn2c(=O)c3c4c(c(N5CCCC5=O)cc3n(Cc3cc(F)c(F)c(Cl)c3)c2=O)CCO4)n1 [Compound I-0871]	–	6.6 nM	11 nM	–	–
COc1cc(-c2c(Cl)ccc3c2CC(=O)N3C)cc2c1c(=O)n(Cc1ncn(C)n1)c(=O)n2Cc1cc(F)c(F)c(F)c1 [Compound I-0869]	< 100 nM	< 100 nM	–	–	–
COc1ccc(Cl)c(-c2cc3c(nc2OC)c(=O)n(Cc2ncn(C)n2)c(=O)n3Cc2cc(Cl)c(F)cc2C)n1 [Compound I-0821]	–	10 nM	37.6 nM	–	–
COc1nc(N2CC[C@@H](O)C2)cc2c1c(=O)n(-c1cnc3cc(F)ccn13)c(=O)n2-c1ccc(F)c(Cl)c1 [Compound I-0745]	< 100 nM	< 100 nM	–	–	–
COc1nc(N2CC[C@@H](F)C2)cc2c1c(=O)n(Cc1ncn(C)n1)c(=O)n2-c1cc(Cl)c(F)c(Cl)c1 [Compound I-0803]	–	32 nM	17.6 nM	–	–
COc1cc(-c2cc([C@H](C)O)ccc2Cl)cc2c1c(=O)n(Cc1ncn(C)n1)c(=O)n2Cc1cc(F)c(F)c(F)c1 [Compound I-0840]	< 100 nM	< 100 nM	–	–	–
COc1nc2c(=O)n(Cc3ncn(C)n3)c(=O)n(Cc3cc(Cl)c(F)cc3C)c2cc1-c1cc(C(C)(C)O)ccc1Cl [Compound I-0822]	< 100 nM	< 100 nM	–	–	–
COc1nc(N2CC[C@@H](OC(F)F)C2)cc2c1c(=O)n(-c1cnc3cc(F)ccn13)c(=O)n2-c1ccc(F)c(Cl)c1 [Compound I-0763]	< 100 nM	< 100 nM	–	–	–
Cn1cnc(Cn2c(=O)c3c4nccnc4c(-c4cc(C#N)ccc4Cl)cc3n(Cc3cc(F)c(F)c(Cl)c3)c2=O)n1 [Compound I-0809]	< 100 nM	< 100 nM	–	–	–
COc1cc(-c2cccc(C#N)c2Cl)cc2c1c(=O)n(Cc1ncn(C)n1)c(=O)n2Cc1cc(F)c(F)c(F)c1 [Compound I-0847]	100 to 1000 nM	< 100 nM	–	–	–
COc1nc(NCC(F)(F)F)cc2c1c(=O)n(-c1cnc3cc(F)ccn13)c(=O)n2-c1ccc(F)c(Cl)c1 [Compound I-1041]	< 100 nM	< 100 nM	–	–	–
COc1nc(N2CC[C@@H](C#N)C2)cc2c1c(=O)n(-c1cncc(F)c1)c(=O)n2-c1ccc(F)c(F)c1 [Compound I-0990]	–	6.8 nM	8.89 nM	–	–
COc1nc(N2CC[C@@H](F)C2)cc2c1c(=O)n(-c1cnc3cc(F)ccn13)c(=O)n2-c1ccc(F)c(F)c1 [Compound I-0982]	< 100 nM	< 100 nM	–	–	–
COc1nc(N2CC[C@@H](O)C2)cc2c1c(=O)n(-c1cncc(F)c1)c(=O)n2-c1ccc(F)c(F)c1 [Compound I-1044]	< 100 nM	< 100 nM	–	–	–
COc1nc(N2CCC(F)(F)C2)cc2c1c(=O)n(-c1cnc3cc(F)c(Cl)cn13)c(=O)n2-c1ccc(F)c(Cl)c1 [Compound I-0655]	< 100 nM	< 100 nM	–	–	–
COc1cc(-c2cc(C3(O)CC3)ccc2Cl)cc2c1c(=O)n(Cc1ncn(C)n1)c(=O)n2Cc1cc(F)c(F)c(F)c1 [Compound I-0546]	< 100 nM	< 100 nM	–	–	–
COc1nc(N2CC[C@@H](O)C2)cc2c1c(=O)n(-c1cncc(F)c1)c(=O)n2-c1ccc(F)c(Cl)c1 [Compound I-0965]	< 100 nM	< 100 nM	–	–	–
COc1nc(N2C[C@@H](F)[C@@H](F)C2)cc2c1c(=O)n(-c1cnc3cc(F)ccn13)c(=O)n2-c1ccc(F)c(C(F)F)c1 [Compound I-0961]	–	3.4 nM	5.82 nM	–	–
COc1nc2c(=O)n(Cc3ncn(C)n3)c(=O)n(Cc3cc(Cl)c(F)cc3C)c2cc1-c1nc(C(C)(C)O)ccc1Cl [Compound I-0882]	< 100 nM	< 100 nM	–	–	–
CCNc1cc2c(c(OC)n1)c(=O)n(-c1cnc3cc(F)ccn13)c(=O)n2-c1ccc(F)c(Cl)c1 [Compound I-0996]	< 100 nM	< 100 nM	–	–	–
COc1nc(N2[C@@H]3CC[C@H]2CNC3)cc2c1c(=O)n(-c1cnc3ccc(Cl)cn13)c(=O)n2Cc1cc(Cl)ccc1Cl [Compound I-0649]	–	–	–	< 100 nM	< 100 nM
COc1nc(N2CCC(F)(F)C2)cc2c1c(=O)n(-c1cncc(C(F)F)c1)c(=O)n2-c1ccc(F)c(Cl)c1 [Compound I-1018]	< 100 nM	< 100 nM	–	–	–
COc1nc(N2CCC(F)(F)C2)cc2c1c(=O)n(-c1cc(C)cnn1)c(=O)n2-c1ccc(F)c(Cl)c1 [Compound I-1003]	< 100 nM	< 100 nM	–	–	–
Cn1cnc(Cn2c(=O)c3c(cc(-c4cc(C#N)ccc4Cl)n4c(=O)[nH]nc34)n(Cc3cc(F)c(F)c(F)c3)c2=O)n1 [Compound I-0647]	–	5.7 nM	13900 nM	–	–

Structure (SMILES)	EC50 [1, 3]	IC50 [2, 4]	EC50 [1, 5]	EC50 ([1]; read-out: EC50 (50% SARS-CoV-2 infected cell death inhibitory concentration))	IC50 ([2]; IC50 (50% SARS-CoV-2 3CL protease inhibitory concentration))
Cn1cnc(Cn2c(=O)c3c4nccnc4c(-c4cc5c(cc4Cl)NC(=O)C5)cc3n(Cc3cc(F)c(F)c(Cl)c3)c2=O)n1 [Compound I-0823]	–	0.75 nM	197 nM	–	–
COc1nc(N2C[C@@H](F)[C@@H](F)C2)cc2c1c(=O)n(-c1cnc3cc(F)ccn13)c(=O)n2-c1ccc(F)c(Cl)c1 [Compound I-0747]	< 100 nM	< 100 nM	–	–	–
COc1nc(N2CCC(N(C)C)C2)cc2c1c(=O)n(-c1cncc(Cl)c1)c(=O)n2-c1ccc(F)c(Cl)c1 (centres unmarked) [Compound I-1022]	< 100 nM	< 100 nM	–	–	–
COc1nc(N2CCC(S(C)(=O)=O)C2)cc2c1c(=O)n(-c1cnc3cc(F)ccn13)c(=O)n2-c1ccc(F)c(Cl)c1 (centres unmarked) [Compound I-1007]	100 to 1000 nM	< 100 nM	–	–	–
COc1nc(N2CC[C@@H](O)C2)cc2c1c(=O)n(-c1cncc(OC(F)F)c1)c(=O)n2-c1ccc(F)c(Cl)c1 [Compound I-0968]	< 100 nM	< 100 nM	–	–	–
COc1nc(N2CC[C@@H](OC)C2)cc2c1c(=O)n(-c1cnc3cc(F)ccn13)c(=O)n2Cc1cc(F)c(F)c(Cl)c1 [Compound I-0735]	< 100 nM	< 100 nM	–	–	–
CCc1cc2c(c(OC)n1)c(=O)n(-c1cnc3cc(F)ccn13)c(=O)n2-c1ccc(F)c(Cl)c1 [Compound I-1032]	< 100 nM	< 100 nM	–	–	–
CCn1c(-c2cc(C#N)ccc2Cl)cc2c(c1=O)c(=O)n(-c1cnc3cc(F)ccn13)c(=O)n2Cc1cc(F)c(F)c(F)c1 [Compound I-0739]	–	0.98 nM	115 nM	–	–
COc1nc(N2CC[C@@H](C#N)C2)cc2c1c(=O)n(-c1cncc(OCF)c1)c(=O)n2-c1ccc(F)c(F)c1 [Compound I-0980]	< 100 nM	< 100 nM	–	–	–
Cn1cnc(Cn2c(=O)c3c4c(c(-c5cc(C(C)(C)O)ccc5Cl)cc3n(Cc3cc(F)c(F)c(Cl)c3)c2=O)CCO4)n1 [Compound I-0812]	–	1.1 nM	15.8 nM	–	–
[2H]C([2H])([2H])O[C@@H]1CCN(c2cc3c(c(OC)n2)c(=O)n(-c2cncc(F)c2)c(=O)n3-c2ccc(F)c(Cl)c2)C1 [Compound I-0953]	< 100 nM	< 100 nM	–	–	–
COc1cc(-c2cc([C@@H](C)O)ccc2Cl)cc2c1c(=O)n(Cc1ncn(C)n1)c(=O)n2Cc1cc(F)c(F)c(F)c1 [Compound I-0839]	100 to 1000 nM	< 100 nM	–	–	–
CCOc1nc2c(=O)n(Cc3ncn(C)n3)c(=O)n(Cc3cc(F)c(F)c(F)c3)c2cc1-c1cc(C#N)ccc1Cl [Compound I-0692]	< 100 nM	< 100 nM	–	–	–
COc1nc(N2CC[C@@H](O)C2)cc2c1c(=O)n(-c1cnc3cc(F)c(F)cn13)c(=O)n2-c1ccc(F)c(Cl)c1 [Compound I-0967]	< 100 nM	< 100 nM	–	–	–
CCC(=O)c1ccc(Cl)c(-c2cc(OC)c3c(=O)n(Cc4ncn(C)n4)c(=O)n(Cc4cc(F)c(F)c(F)c4)c3c2)c1 [Compound I-0657]	–	20 nM	76.1 nM	–	–
COc1nc(C2CCOCC2)cc2c1c(=O)n(-c1cnc3cc(F)ccn13)c(=O)n2-c1ccc(F)c(Cl)c1 [Compound I-1021]	–	12 nM	16.1 nM	–	–
[2H]C([2H])([2H])O[C@@H]1CCN(c2cc3c(c(OC)n2)c(=O)n(-c2cncc(OCF)c2)c(=O)n3-c2ccc(F)c(Cl)c2)C1 [Compound I-0963]	< 100 nM	< 100 nM	–	–	–
COc1nc(N2CCC(C)(O)C2)cc2c1c(=O)n(-c1cnc3cc(F)ccn13)c(=O)n2-c1ccc(F)c(Cl)c1 (centres unmarked) [Compound I-1043]	< 100 nM	< 100 nM	–	–	–
COc1nc(N2CC[C@@H](C#N)C2)cc2c1c(=O)n(-c1cncc(OCF)c1)c(=O)n2-c1ccc(F)c(Cl)c1 [Compound I-0941]	< 100 nM	< 100 nM	–	–	–
[2H]C([2H])([2H])O[C@@H]1CCN(c2cc3c(c(OC)n2)c(=O)n(-c2cncc(C)c2)c(=O)n3-c2ccc(F)c(Cl)c2)C1 [Compound I-0937]	–	1.3 nM	5.56 nM	–	–
CCc1nc(N2CCC(F)(F)C2)cc2c1c(=O)n(-c1cncc(Cl)c1)c(=O)n2-c1ccc(F)c(F)c1 [Compound I-1023]	< 100 nM	< 100 nM	–	–	–
N#Cc1ccc(Cl)c(-c2cc3c(c(=O)n(-c4cnc5ccccn45)c(=O)n3Cc3cc(F)c(F)c(F)c3)c3nccnc23)c1 [Compound I-0844]	< 100 nM	< 100 nM	–	–	–
COc1cc(-c2cc(P(C)(C)=O)ccc2Cl)cc2c1c(=O)n(Cc1ncn(C)n1)c(=O)n2Cc1cc(F)c(F)c(F)c1 [Compound I-0893]	–	36 nM	2330 nM	–	–
COc1cc(-c2ncc(F)cc2Cl)cc2c1c(=O)n(Cc1ncn(C)n1)c(=O)n2Cc1cc(F)c(F)c(F)c1 [Compound I-0827]	100 to 1000 nM	< 100 nM	–	–	–
